The values below come from patent publication US9150590B2, “Process for the synthesis of rifaximin and a new pseudo-crystalline form of rifaximin obtained thereby” (Friulchem Spa, priority 2011, dated 2015).

The series can be described thus: polymorphic stability on drying or wetting (XRPD, Karl Fischer water content). Conditions: water content between 0.5% and 7% (Karl Fisher). Type of series: physicochemical. The source says:
Advantageously, the pseudo-crystalline rifaximin is stable at a water content comprised between 0.5% and 7%. In contrast to the rifaximin of the state of the art, transition from one polymorphic form to another is not observed when the water content varies between 0.5% and 7%. […] Water content is typically assessed according to the Karl Fisher method.
In the processes of the present invention, the absence of salts (methylaminopyridine hydrochloride and ascorbic acid salts) and the final pH of the solution yield a pseudo-crystalline form of rifaximin which is stable at various water contents comprised between 0.5% and 7%. This pseudo-crystalline form is stable upon drying or wetting with water and transition between different polymorphic forms depending on the water content is not observed. The rifaximin obtained by the process of the present invention is polymorphically stable.
Advantageously, the X-ray diffractogramm of the rifaximin according to the present invention is not modified when the water content varies between 0.5% and 7%.
The diffractograms have been carried out by using the SIEMENS D5000 instrument and under the following working conditions: • Radiation used: Kα of Copper (λ=1.5406 Å) • Tension of the generator: KV 35 • Current of the generator: 30 mA • Starting and final angular 2θ value: from 2.0° to 60.0°.

With `CO[C@H]1/C=C/O[C@@]2(C)Oc3c(C)c(O)c4c(O)c(c5c(nc6cc(C)ccn65)c4c3C2=O)NC(=O)/C(C)=C\C=C\[C@H](C)[C@H](O)[C@@H](C)[C@@H](O)[C@@H](C)[C@H](OC(C)=O)[C@@H]1C` [pseudo-crystalline rifaximin, rifaximin], the “polymorphic stability (transition to another polymorphic form)” value is recorded as “stable”.
